Structures can show the parent of a compound that is named as a salt. Where two headings read alike, the source gives them in different places.
Key:
NLRP3 [1] = target: T1, NLRP3 (Homo sapiens (Human), UniProt Q96P20); assay: THP-1 cells pyroptosis assay (LPS + nigericin, resazurin read-out); type: cell-based; conditions: 1 μg/ml LPS, 5 μM nigericin
In short: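 LPS-primed (1 μg/ml) human THP-1 cells in serum-free RPMI were exposed to compound (8-point half-log series, top dose as printed "10M") for 3 h at 37 °C, then to nigericin 5 μM for 1 h. Remaining viability was read by resazurin (100 μM, 1-2 h) fluorescence, and IC50 came from 4-parameter variable-slope regression.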

NLRP3 [2] = target: T1, NLRP3; assay: Human whole blood IL1β release assay (LPS + nigericin); type: cell-based
Description: For systemic delivery, the ability to inhibit NLRP3 when the compounds are present within the bloodstream is of great importance. For this reason, the NLRP3 inhibitory activity of a number of compounds in human whole blood was investigated in accordance with the following protocol.
Human whole blood in Li-heparin tubes was obtained from healthy donors from a volunteer donor panel. • 1. Plate out 80 μl of whole blood containing 1 μg/ml of LPS in 96-well, clear bottom cell culture plate (Corning #3585) • 2. Add 10 μl compound (8 points half-log dilution with 10 μM top dose) or vehicle (DMSO 0.1% FAC) to the appropriate wells • 3. Incubate for 3 hrs at 37° C., 5% CO2 • 4. Add 10 μl nigericin (Sigma #N7143) ([…]) to all wells • 5. Incubate for 1 hr at 37° C., 5% CO2 • 6. At the end of the incubation period, spin plates at 30×g for 5 mins to pellet cells and remove 20 μl of supernatant and add to 96-well v-bottom plates for IL-1β analysis (note: these plates containing the supernatants can be stored at −80° C. to be analysed at a later date) • 7. IL-1β was measured according to the manufacturer protocol (Perkin Elmer-AlphaLisa IL-Kit A[220F-5000) • 8. IC50 data is fitted to a non-linear regression equation (log inhibitor vs response-variable slope 4-parameters)

[3] = PK, intravenous administration; type: in vivo, male Sprague Dawley rats; conditions: male, Sprague Dawley, rat
Description: Pharmacokinetic parameters were determined in male Sprague Dawley rats (Charles River, UK, 250-300 g; or Vital River Laboratory Animal Technology Co Ltd, Beijing, China, 7-9 weeks old). Animals were individually housed during the study and maintained under a 12 h light/dark cycle. Animals had free access to food and water except that orally dosed animals were food deprived overnight prior to the study. For intravenous administration, compounds were formulated as a solution in water or DMSO:PBS [10:90] in 2 mL/kg dosing volume and administered via tail vein. For oral administration, compounds were formulated as a solution in water or DMSO:water [10:90] in 5 mL/kg dosing volume and administered orally. Serial blood samples (about 120-300 μL) were taken from each animal at each of 8 time-points post dose (0.083, 0.25, 0.5, 1, 2, 4, 8 and 24 h). Samples were held on ice for no longer than 30 minutes before centrifugation (10,000 rpm (8,385 g) for 3 minutes; or 5,696 rpm (3,000 g) for 15 minutes) for plasma generation. Plasma was frozen on dry ice prior to bioanalysis. PK parameters were generated from LC-MS/MS data using Dotmatics or Phoenix WinNonlin 6.3 software.

[4] = human whole blood, 1 μg/ml LPS, nigericin, IL-1β release, read-out: HWB IC50
[5] = plasma, intravenous, dose 1 mg/kg, read-out: AUC
[6] = plasma, intravenous, dose 1 mg/kg, read-out: Cl
[7] = plasma, intravenous, dose 1 mg/kg, read-out: T1/2 (converted)
[8] = plasma, intravenous, dose 1 mg/kg, read-out: Vdss

T1 sequence (Q96P20 whole entry): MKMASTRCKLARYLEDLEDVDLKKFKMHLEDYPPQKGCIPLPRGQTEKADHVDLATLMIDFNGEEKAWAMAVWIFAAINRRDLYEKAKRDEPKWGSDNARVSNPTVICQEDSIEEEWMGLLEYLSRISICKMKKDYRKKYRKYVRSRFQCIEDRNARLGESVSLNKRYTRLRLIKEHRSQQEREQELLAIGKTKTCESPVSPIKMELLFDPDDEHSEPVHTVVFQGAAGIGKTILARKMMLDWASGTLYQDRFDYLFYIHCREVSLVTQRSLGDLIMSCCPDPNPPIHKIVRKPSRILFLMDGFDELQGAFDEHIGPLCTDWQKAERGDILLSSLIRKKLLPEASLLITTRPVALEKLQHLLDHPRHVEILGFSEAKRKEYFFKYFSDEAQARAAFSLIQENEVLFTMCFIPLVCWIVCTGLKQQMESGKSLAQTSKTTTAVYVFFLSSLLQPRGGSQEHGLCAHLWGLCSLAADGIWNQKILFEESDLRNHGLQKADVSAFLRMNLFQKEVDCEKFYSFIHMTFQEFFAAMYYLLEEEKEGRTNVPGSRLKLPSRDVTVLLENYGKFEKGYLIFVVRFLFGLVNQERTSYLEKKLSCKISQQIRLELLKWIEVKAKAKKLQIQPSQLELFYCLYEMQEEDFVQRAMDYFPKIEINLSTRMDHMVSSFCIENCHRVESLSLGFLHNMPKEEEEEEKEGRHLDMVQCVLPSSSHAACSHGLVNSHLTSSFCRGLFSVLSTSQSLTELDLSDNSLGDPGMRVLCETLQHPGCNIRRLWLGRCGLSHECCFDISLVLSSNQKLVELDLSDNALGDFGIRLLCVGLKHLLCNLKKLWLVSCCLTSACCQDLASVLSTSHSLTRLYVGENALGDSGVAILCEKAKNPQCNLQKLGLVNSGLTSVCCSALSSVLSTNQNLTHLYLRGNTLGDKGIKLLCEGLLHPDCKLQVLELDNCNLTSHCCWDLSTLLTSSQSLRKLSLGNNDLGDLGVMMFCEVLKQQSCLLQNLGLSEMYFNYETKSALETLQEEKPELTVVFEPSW

Row | SMILES | IC50 (NLRP3 [1]) | IC50 (NLRP3 [2]; [4]) | also measured
1 | CC(CO)N1CC(S(=O)(=O)NC(=O)Nc2c3c(cc4c2CCC4)CCC3)C1 (stereo not drawn) [Example 130, N-((1,2,3,5,6,7-Hexahydro-s-indacen-4-yl)carbamoyl)-1-(1-hydroxypropan-2-yl)azetidine-3-sulfonamide, potassium salt] | < 1000 nM | < 1000 nM | 
2 | O=C(Nc1c2c(cc3c1CCC3)CCC2)NS(=O)(=O)C1CN(C2CCC2)C1 [Example 18, 1-Cyclobutyl-N-((1,2,3,5,6,7-hexahydro-s-indacen-4-yl)carbamoyl)azetidine-3-sulfonamide, potassium salt] |  |  | AUC [3, 5]: 1530 ng·h/mL; clearance [3, 6]: 10.9 mL/min/kg; half-life [3, 7]: 0.9 h; Vd [3, 8]: 0.42 L/kg
3 | COC(=O)N1CCC(S(=O)(=O)NC(=O)Nc2c3c(cc4c2CCC4)CCC3)CC1 [Example 13, Methyl 4-(N-((1,2,3,5,6,7-hexahydro-s-indacen-4-yl)carbamoyl)sulfamoyl)piperidine-1-carboxylate, potassium salt] | < 1000 nM | > 10000 nM | 
4 | CC(O)CN1CC(S(=O)(=O)NC(=O)Nc2c3c(cc4c2CCC4)CCC3)C1 (stereo not drawn) [Example 137, N-((1,2,3,5,6,7-Hexahydro-s-indacen-4-yl)carbamoyl)-1-(2-hydroxypropyl)azetidine-3-sulfonamide, potassium salt] | < 1000 nM | 1000 to 10000 nM | 
5 | CC(C)n1cc(S(=O)(=O)NC(=O)Nc2c3c(cc4c2CCC4)CCC3)ncc1=O [Example 181, N-((1,2,3,5,6,7-Hexahydro-s-indacen-4-yl)carbamoyl)-4-isopropyl-5-oxo-4,5-dihydropyrazine-2-sulfonamide, sodium salt] | < 1000 nM | < 1000 nM | 
6 | CC(C)(C)CN1CC(S(=O)(=O)NC(=O)Nc2c3c(cc4c2CCC4)CCC3)C1 [Example 135, N-((1,2,3,5,6,7-Hexahydro-s-indacen-4-yl)carbamoyl)-1-neopentylazetidine-3-sulfonamide, potassium salt] | < 1000 nM | 1000 to 10000 nM | 
7 | CCN1CC(S(=O)(=O)NC(=O)Nc2c(-c3ccnc(OC)c3)ccc3c2CCC3)C1 [Example 167, 1-Ethyl-N-((5-(2-methoxypyridin-4-yl)-2,3-dihydro-1H-inden-4-yl)carbamoyl)azetidine-3-sulfonamide] | < 1000 nM | < 1000 nM | 
8 | O=C(Nc1c2c(cc3c1CCC3)CCC2)NS(=O)(=O)C1CN(C(=O)OCc2ccccc2)C1 [Example 71, Benzyl 3-(N-((1,2,3,5,6,7-hexahydro-s-indacen-4-yl)carbamoyl)sulfamoyl)azetidine-1-carboxylate, potassium salt] | < 1000 nM | > 10000 nM | 
9 | O=C(Nc1c2c(cc3c1CCC3)CCC2)NS(=O)(=O)C1CN(C2CCOC2)C1 (stereo not drawn) [Example 121, N-((1,2,3,5,6,7-Hexahydro-s-indacen-4-yl)carbamoyl)-1-(tetrahydrofuran-3-yl)azetidine-3-sulfonamide, potassium salt] | < 1000 nM | < 1000 nM | 
10 | C#CCN1CC(S(=O)(=O)NC(=O)Nc2c3c(cc4c2CCC4)CCC3)C1 [Example 133, N-((1,2,3,5,6,7-Hexahydro-s-indacen-4-yl)carbamoyl)-1-(prop-2-yn-1-yl)azetidine-3-sulfonamide, potassium salt] | < 1000 nM | < 1000 nM | 
11 | O=C(Nc1c2c(cc3c1CCC3)CCC2)NS(=O)(=O)C1CN(Cc2cncnc2)C1 [Example 125, N-((1,2,3,5,6,7-Hexahydro-s-indacen-4-yl)carbamoyl)-1-(pyrimidin-S-ylmethyl)azetidine-3-sulfonamide, potassium salt] |  | 1000 to 10000 nM | 
12 | O=C(Nc1c2c(cc3c1CCC3)CCC2)NS(=O)(=O)C1CN(Cc2cccnc2)C1 [Example 90, N-((1,2,3,5,6,7-Hexahydro-s-indacen-4-yl)carbamoyl)-1-(pyridin-3-ylmethyl)azetidine-3-sulfonamide, potassium salt] | < 1000 nM | < 1000 nM | 
13 | CCN1[C@@H]2CC[C@H]1C[C@H](S(=O)(=O)NC(=O)Nc1c3c(cc4c1CCC4)CCC3)C2 [Example 70, N-((1,2,3,5,6,7-Hexahydro-s-indacen-4-yl)carbamoyl)-8-ethyl-8-azabicyclo[3.2.1]octane-3-sulfonamide exo isomers, potassium salt] |  |  | AUC ([3]; in vivo, iv, 1.86 mg/kg): 2550 ng·h/mL; Vd ([3]; in vivo, iv, 1.86 mg/kg): 0.53 L/kg; clearance ([3]; in vivo, iv, 1.86 mg/kg): 12.1 mL/min/kg; half-life ([3]; in vivo, iv, 1.86 mg/kg): 1.7 h
14 | COc1cc(-c2cc(F)cc(C(C)C)c2NC(=O)NS(=O)(=O)C2CN(C3CCC3)C2)ccn1 [Example 162, 1-Cyclobutyl-N-((4-fluoro-2-isopropyl-6-(2-methoxypyridin-4-yl)phenyl)carbamoyl)azetidine-3-sulfonamide] | < 1000 nM | < 1000 nM | 
15 | O=C(Nc1c2c(cc3c1CCC3)CCC2)NS(=O)(=O)C1CN(C2CCCC2)C1 [Example 99, 1-Cyclopentyl-N-((1,2,3,5,6,7-hexahydro-s-indacen-4-yl)carbamoyl)azetidine-3-sulfonamide, potassium salt] |  |  | AUC [3, 5]: 1670 ng·h/mL; clearance [3, 6]: 10 mL/min/kg; half-life [3, 7]: 0.6 h; Vd [3, 8]: 0.42 L/kg
16 | O=C(Nc1c2c(cc3c1CCC3)CCC2)NS(=O)(=O)C1CN(CCCl)C1 [Example 92, 1-(2-Chloroethyl)-N-((1,2,3,5,6,7-hexahydro-s-indacen-4-yl)carbamoyl)azetidine-3-sulfonamide, potassium salt] |  |  | IC50 (NLRP3 [2]): 1000 to 10000 nM
17 | CCN1CCC(S(=O)(=O)NC(=O)Nc2c3c(cc4c2CCC4)CCC3)C1 (stereo not drawn) [Example 37, 1-Ethyl-N-((1,2,3,5,6,7-hexahydro-s-indacen-4-yl)carbamoyl) pyrrolidine-3-sulfonamide, potassium salt] |  |  | AUC ([3]; plasma, intravenous, dose 1.46 mg/kg, read-out: AUC): 2250 ng·h/mL; clearance ([3]; plasma, intravenous, dose 1.46 mg/kg, read-out: Cl): 10.8 mL/min/kg; half-life ([3]; plasma, intravenous, dose 1.46 mg/kg, read-out: T1/2 (converted)): 2.1 h; Vd ([3]; plasma, intravenous, dose 1.46 mg/kg, read-out: Vdss): 0.59 L/kg
18 | COc1cc(-c2ccc3c(c2NC(=O)NS(=O)(=O)c2cn(C(C)C)c(=O)cn2)CCC3)ccn1 [Example 156, 4-Isopropyl-N-((5-(2-methoxypyridin-4-yl)-2,3-dihydro-11H-inden-4-yl)carbamoyl)-S-oxo-4,5-dihydropyrazine-2-sulfonamide] |  |  | AUC [3, 5]: 1520 ng·h/mL; clearance [3, 6]: 11 mL/min/kg; half-life [3, 7]: 1 h; Vd [3, 8]: 0.31 L/kg
19 | O=C(Nc1c2c(cc3c1CCC3)CCC2)NS(=O)(=O)C1CN(Cc2ccccc2)C1 [Example 72, 1-Benzyl-N-((1,2,3,5,6,7-hexahydro-s-indacen-4-yl)carbamoyl) azetidine-3-sulfonamide, potassium salt] |  | 1000 to 10000 nM | 
20 | CC(C)N1[C@@H]2CC[C@H]1C[C@@H](S(=O)(=O)NC(=O)Nc1c3c(cc4c1CCC4)CCC3)C2 [Example 45, (1R*,3R*,5S*)—N-((1,2,3,5,6,7-Hexahydro-s-indacen-4-yl)carbamoyl)-8-isopropyl-8-azabicyclo[3.2.i]octane-3-sulfonamide, potassium salt] |  |  | AUC ([3]; in vivo, iv, 0.66 mg/kg): 703 ng·h/mL; Vd ([3]; in vivo, iv, 0.66 mg/kg): 2.06 L/kg; clearance ([3]; in vivo, iv, 0.66 mg/kg): 15.6 mL/min/kg; half-life ([3]; in vivo, iv, 0.66 mg/kg): 3.3 h
21 | CCN1CCC(S(=O)(=O)NC(=O)Nc2c3c(cc4c2CCC4)CC=C3)CC1 [Example 189, 1-Ethyl-N-((1,2,3,7-tetrahydro-s-indacen-4-yl)carbamoyl) piperidine-4-sulfonamide, potassium salt] |  | 1000 to 10000 nM | 
22 | [N-]=[N+]=NCCN1CC(S(=O)(=O)NC(=O)Nc2c3c(cc4c2CCC4)CCC3)C1 [Example 95, 1-(2-Azidoethyl)-N-((1,2,3,5,6,7-hexahydro-s-indacen-4-yl)carbamoyl)azetidine-3-sulfonamide, potassium salt] |  | 1000 to 10000 nM | 

— US20250115591A1, “NOVEL SULFONAMIDE CARBOXAMIDE COMPOUNDS” (INFLAZOME LIMITED, priority 2017, published 2025)
